# Source: article PMC6004248 (Clinical cancer research : an official journal of the …, 2018)
# Values joined by “and” are separate entries in the source; they are usually repeats but may differ in a detail not shown here. Equal values may be shown once. Read-outs that look alike come from different tables or passages of the source.
# Experiments:
# [1] = cited from earlier work; for patients who experienced diarrhea: in some studies
# ALK-positive NSCLC [2] = settings: cited from earlier work
# ALK-positive NSCLC [3] = settings: crizotinib-refractory population; cited from earlier work
# TPM3-TRKA = TPM3-TRKA (Homo sapiens, UniProt P04629); assay: Biochemical kinase assay
# wild-type ALK = wild-type ALK (Homo sapiens, UniProt Q9UM73); assay: Biochemical kinase assay
# GOPC-ROS1 = GOPC-ROS1 (Homo sapiens, UniProt P08922); assay: Biochemical kinase assay
# [4] = test system: H3122 lung cancer xenografts (EML4-ALK E13;A20 fusion); settings: cited from earlier work
# ALK C1156Y mutant = ALK C1156Y mutant (Homo sapiens, UniProt Q9UM73, C1156Y); assay: Biochemical kinase assay
# [5] = Phase I/II trial, plasma pharmacokinetics; assay type: in vivo, human
# EphA1 = biological target: T1, EphA1 (Homo sapiens, UniProt P21709); assay: Biochemical kinase assay
# T1 sequence (P21709 26-976): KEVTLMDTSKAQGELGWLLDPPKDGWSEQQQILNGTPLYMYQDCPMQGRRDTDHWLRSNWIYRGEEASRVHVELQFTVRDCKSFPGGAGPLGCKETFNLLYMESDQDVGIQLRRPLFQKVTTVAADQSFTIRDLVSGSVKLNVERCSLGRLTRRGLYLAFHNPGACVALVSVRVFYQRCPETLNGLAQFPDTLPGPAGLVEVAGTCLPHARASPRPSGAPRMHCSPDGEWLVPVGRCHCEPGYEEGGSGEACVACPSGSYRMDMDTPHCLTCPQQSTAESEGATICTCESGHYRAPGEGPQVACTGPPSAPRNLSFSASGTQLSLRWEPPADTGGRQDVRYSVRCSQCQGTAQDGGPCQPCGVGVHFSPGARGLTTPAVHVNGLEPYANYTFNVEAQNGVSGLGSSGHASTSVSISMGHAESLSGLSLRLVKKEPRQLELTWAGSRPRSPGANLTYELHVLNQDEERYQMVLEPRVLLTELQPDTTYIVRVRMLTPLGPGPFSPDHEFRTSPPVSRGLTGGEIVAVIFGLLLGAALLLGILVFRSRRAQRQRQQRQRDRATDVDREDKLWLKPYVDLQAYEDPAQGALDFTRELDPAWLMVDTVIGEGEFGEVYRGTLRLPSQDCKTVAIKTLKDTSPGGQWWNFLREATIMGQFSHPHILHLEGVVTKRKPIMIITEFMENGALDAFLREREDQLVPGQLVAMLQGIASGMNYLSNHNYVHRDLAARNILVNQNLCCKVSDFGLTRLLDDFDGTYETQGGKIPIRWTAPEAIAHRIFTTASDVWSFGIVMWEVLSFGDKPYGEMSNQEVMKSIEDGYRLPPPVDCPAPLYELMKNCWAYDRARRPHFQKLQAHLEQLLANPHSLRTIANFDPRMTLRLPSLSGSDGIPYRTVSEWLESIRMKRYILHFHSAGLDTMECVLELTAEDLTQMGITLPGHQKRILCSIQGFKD
# c-MET = c-MET (Homo sapiens, UniProt P08581); assay: Biochemical kinase assay
# ALK T1151 mutant = ALK T1151 mutant (Homo sapiens, UniProt Q9UM73); assay: Biochemical kinase assay
# ALK F1174 mutant = ALK F1174 mutant (Homo sapiens, UniProt Q9UM73); assay: Biochemical kinase assay
# ALK variants = assay: Biochemical kinase assay; settings: read-out: in vitro IC50s, all evaluated ALK variants; wild-type ALK and 17 ALK variants
# EphA2 = EphA2 (Homo sapiens, UniProt P29317); assay: Biochemical kinase assay
# [6] = test system: ALK-positive lung cancer cell lines; settings: cited from earlier work
# EphB1 = biological target: T2, EphB1 (Homo sapiens, UniProt P54762); assay: Biochemical kinase assay
# T2 sequence (P54762 18-984): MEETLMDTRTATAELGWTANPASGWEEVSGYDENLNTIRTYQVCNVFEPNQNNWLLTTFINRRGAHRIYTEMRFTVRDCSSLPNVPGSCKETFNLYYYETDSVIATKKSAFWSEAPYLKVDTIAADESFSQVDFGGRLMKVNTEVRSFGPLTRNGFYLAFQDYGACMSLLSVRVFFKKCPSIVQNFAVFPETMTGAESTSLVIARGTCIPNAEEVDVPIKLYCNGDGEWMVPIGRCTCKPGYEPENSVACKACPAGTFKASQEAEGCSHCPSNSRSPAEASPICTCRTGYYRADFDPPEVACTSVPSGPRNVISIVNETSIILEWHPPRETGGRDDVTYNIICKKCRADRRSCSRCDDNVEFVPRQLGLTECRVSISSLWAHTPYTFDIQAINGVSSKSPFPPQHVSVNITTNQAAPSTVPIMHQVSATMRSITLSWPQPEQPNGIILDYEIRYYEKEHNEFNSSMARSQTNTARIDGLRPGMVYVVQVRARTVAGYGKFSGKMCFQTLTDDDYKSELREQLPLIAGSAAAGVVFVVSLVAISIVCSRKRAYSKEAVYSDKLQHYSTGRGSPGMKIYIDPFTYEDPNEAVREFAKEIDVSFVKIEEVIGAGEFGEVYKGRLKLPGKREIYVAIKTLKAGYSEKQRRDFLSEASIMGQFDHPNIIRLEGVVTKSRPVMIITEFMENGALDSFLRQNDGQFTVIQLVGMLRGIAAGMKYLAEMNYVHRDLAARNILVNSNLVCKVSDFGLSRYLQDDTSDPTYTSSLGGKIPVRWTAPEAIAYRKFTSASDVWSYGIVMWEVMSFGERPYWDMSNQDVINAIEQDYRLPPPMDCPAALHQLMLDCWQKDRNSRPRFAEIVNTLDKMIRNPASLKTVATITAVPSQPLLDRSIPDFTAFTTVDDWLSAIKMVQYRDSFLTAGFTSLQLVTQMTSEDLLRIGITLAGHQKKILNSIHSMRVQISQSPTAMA
# Phase I/II trial, safety = assay type: in vivo
# [7] = test system: ALK fusions engineered to have point mutation C1156Y; settings: mutation associated with crizotinib resistance; cited from earlier work
# ALK-positive NSCLC [8] = assay: Phase I/II trial, antitumor activity; assay type: in vivo, human
# TRKC = TRKC (Homo sapiens, UniProt Q16288); assay: Biochemical kinase assay
# ALK L1196M mutant = ALK L1196M mutant (Homo sapiens, UniProt Q9UM73, L1196M); assay: Biochemical kinase assay
# [9] = test system: ALK fusions engineered to have point mutation L1196M; settings: mutation associated with crizotinib resistance; cited from earlier work
# ALK S1206R mutant = ALK S1206R mutant (Homo sapiens, UniProt Q9UM73, S1206R); assay: Biochemical kinase assay
# [10] = ALK-positive efficacy evaluable patients, ≥200 mg, n=60
# [11] = patients with baseline CNS target lesions, n=14, ≥200 mg
# [12] = prior crizotinib and at least one second-generation ALK TKI, n=16
# Sequence of wild-type ALK (Q9UM73 19-1620): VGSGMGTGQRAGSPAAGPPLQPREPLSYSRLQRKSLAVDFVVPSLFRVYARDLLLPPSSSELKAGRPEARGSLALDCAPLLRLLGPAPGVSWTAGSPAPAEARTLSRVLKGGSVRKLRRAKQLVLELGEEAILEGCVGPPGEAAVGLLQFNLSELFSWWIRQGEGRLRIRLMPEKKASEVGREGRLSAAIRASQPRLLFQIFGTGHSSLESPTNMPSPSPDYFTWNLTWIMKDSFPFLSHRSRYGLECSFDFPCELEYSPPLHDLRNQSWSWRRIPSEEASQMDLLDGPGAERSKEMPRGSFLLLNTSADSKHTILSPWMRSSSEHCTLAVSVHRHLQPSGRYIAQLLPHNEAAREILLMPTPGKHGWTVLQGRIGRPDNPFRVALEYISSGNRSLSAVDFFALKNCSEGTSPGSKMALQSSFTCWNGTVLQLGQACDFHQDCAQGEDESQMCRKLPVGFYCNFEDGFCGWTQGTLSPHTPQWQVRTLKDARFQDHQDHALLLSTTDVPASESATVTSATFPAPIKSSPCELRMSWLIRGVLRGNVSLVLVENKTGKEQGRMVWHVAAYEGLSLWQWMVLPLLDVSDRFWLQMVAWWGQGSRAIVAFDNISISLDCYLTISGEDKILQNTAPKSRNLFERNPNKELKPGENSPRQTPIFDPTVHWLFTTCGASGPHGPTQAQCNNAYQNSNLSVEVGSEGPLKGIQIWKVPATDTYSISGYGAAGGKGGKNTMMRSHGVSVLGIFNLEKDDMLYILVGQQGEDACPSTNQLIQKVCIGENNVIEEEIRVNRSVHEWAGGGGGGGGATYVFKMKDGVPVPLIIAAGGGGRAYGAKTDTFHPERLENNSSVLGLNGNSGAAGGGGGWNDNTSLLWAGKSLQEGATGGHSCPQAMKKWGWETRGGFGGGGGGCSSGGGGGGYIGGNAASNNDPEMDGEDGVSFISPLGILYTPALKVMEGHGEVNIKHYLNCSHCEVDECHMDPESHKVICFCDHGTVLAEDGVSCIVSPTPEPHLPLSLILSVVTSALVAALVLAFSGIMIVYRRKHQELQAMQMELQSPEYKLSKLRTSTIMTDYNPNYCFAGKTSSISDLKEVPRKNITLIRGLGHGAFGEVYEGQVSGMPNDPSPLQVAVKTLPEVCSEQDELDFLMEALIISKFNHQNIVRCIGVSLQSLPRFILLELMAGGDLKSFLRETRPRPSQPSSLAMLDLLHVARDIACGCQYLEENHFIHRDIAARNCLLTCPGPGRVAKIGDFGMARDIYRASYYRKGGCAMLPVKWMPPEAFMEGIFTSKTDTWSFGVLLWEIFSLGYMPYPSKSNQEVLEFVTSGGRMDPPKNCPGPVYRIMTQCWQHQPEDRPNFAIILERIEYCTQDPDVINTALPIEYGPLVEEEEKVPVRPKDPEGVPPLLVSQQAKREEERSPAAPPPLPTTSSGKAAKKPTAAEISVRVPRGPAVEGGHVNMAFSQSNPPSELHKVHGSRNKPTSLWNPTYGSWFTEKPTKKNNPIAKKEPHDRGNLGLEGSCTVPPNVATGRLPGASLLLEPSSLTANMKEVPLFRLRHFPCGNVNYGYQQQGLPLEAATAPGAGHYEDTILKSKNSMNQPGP
# Sequence of GOPC-ROS1 (P08922 1881-2347, other chains not shown): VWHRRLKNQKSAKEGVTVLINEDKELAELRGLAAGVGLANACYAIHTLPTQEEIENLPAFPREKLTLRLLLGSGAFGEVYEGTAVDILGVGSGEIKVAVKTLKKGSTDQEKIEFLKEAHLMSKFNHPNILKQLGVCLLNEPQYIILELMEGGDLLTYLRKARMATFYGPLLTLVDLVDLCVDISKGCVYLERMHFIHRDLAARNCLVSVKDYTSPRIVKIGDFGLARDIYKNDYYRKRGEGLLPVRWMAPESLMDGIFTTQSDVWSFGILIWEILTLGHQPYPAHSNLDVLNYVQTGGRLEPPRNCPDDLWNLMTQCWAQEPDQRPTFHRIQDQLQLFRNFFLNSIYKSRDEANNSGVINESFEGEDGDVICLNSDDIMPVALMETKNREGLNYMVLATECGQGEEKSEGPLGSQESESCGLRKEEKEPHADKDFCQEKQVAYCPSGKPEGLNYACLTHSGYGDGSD
# Sequence of ALK S1206R mutant (Q9UM73 19-1620 S1206R): as the sequence (Q9UM73 19-1620) above, with S1188R counted along it
# Sequence of TPM3-TRKA (P04629 399-796): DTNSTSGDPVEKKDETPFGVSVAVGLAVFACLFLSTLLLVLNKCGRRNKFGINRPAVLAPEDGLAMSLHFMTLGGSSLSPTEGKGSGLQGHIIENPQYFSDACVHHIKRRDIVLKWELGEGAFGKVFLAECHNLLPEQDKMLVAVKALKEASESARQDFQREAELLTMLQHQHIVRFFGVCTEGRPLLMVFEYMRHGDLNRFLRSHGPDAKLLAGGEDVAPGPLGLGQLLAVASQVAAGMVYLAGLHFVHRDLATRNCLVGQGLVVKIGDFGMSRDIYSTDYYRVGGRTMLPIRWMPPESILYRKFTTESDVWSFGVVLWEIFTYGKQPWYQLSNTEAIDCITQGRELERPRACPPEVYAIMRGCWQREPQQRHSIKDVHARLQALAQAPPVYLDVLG
# Sequence of TPM3-TRKA (P06753 2-258 partner): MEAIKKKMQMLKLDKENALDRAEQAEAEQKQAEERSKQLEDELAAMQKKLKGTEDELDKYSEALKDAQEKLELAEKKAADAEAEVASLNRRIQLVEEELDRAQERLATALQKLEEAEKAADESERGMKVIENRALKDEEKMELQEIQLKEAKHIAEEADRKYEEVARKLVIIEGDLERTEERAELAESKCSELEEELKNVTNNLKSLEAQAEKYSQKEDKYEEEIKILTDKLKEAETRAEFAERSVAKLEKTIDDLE
# Sequence of ALK T1151 mutant (Q9UM73 1058-1620, change not shown): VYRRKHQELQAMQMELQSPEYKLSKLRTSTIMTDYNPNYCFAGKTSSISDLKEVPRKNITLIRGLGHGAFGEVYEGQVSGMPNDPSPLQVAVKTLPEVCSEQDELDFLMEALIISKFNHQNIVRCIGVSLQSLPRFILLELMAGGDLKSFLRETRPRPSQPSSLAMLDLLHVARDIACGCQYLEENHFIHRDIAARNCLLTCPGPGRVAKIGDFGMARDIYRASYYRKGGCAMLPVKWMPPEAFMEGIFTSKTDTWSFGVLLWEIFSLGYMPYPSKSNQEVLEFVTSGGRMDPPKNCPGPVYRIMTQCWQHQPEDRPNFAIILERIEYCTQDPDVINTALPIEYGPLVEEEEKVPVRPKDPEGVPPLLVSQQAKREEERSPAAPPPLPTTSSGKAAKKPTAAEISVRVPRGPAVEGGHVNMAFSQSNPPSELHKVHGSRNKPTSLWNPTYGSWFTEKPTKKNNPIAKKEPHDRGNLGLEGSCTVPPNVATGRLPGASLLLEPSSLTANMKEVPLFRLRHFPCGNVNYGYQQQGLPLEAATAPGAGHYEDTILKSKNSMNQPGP
# Sequence of ALK F1174 mutant (Q9UM73 1058-1620, change not shown): as above
# Sequence of TRKC (Q16288 32-839): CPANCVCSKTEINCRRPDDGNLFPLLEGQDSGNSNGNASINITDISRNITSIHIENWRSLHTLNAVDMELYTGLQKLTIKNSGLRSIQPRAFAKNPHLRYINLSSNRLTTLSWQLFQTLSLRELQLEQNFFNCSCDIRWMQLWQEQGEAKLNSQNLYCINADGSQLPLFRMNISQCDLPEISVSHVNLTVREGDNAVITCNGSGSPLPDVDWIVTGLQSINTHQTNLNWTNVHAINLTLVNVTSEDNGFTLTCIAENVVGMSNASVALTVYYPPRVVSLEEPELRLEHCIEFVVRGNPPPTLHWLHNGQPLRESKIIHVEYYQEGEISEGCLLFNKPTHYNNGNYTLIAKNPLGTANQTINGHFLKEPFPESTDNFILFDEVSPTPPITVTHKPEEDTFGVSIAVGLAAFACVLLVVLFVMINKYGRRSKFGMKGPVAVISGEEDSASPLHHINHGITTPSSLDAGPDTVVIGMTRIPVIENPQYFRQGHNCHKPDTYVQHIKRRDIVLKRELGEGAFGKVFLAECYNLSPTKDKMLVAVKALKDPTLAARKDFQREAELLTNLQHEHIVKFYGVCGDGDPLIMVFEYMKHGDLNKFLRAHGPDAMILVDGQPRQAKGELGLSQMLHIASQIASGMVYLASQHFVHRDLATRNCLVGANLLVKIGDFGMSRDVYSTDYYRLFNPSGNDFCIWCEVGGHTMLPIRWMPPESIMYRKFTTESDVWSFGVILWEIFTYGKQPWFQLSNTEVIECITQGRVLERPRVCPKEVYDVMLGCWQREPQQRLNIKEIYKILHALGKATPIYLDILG
# Sequence of ALK C1156Y mutant (Q9UM73 19-1620 C1156Y): as the sequence (Q9UM73 19-1620) above, with C1138Y counted along it
# Sequence of ALK L1196M mutant (Q9UM73 19-1620 L1196M): as the sequence (Q9UM73 19-1620) above, with L1178M counted along it
structure (smiles),measurement,setting,value
Cc1cc(Nc2ncc(Cl)c(Nc3ccccc3S(=O)(=O)C(C)C)n2)c(OC(C)C)cc1C1CCNCC1 [ceritinib],patients with vomiting,[1],majority of patients
same,patients who experienced diarrhea,[1],75%
same,patients discontinuing therapy,ALK-positive NSCLC [2],10%
same,patients who experienced a SAE,ALK-positive NSCLC [2],38%
same,patients with a dose interruption,ALK-positive NSCLC [2],66%
same,RR,ALK-positive NSCLC [2]; first line,73%
same,intracranial response,ALK-positive NSCLC [2]; first line,57%
same,median PFS,ALK-positive NSCLC [2]; first line,16.6 months
COc1cc(N2CCC(N3CCN(C)CC3)CC2)ccc1Nc1ncc(Cl)c(Nc2ccccc2P(C)(C)=O)n1 [brigatinib],patients who experienced diarrhea,[1],41%
same,RR,ALK-positive NSCLC [3],54%
same,median PFS,ALK-positive NSCLC [3],12.9 months
C[C@@H]1CN(C(=O)c2ccc(NC(=O)c3cc(O[C@H](C)c4c(Cl)ccc(F)c4Cl)c(N)nn3)cc2)C[C@H](C)N1 [ensartinib],IC50,TPM3-TRKA,< 1 nM
same,IC50,wild-type ALK,< 0.4 nM
same,IC50,GOPC-ROS1,< 1 nM
same,antitumor activity in xenografts,[4],potent antitumor activity
same,IC50,ALK C1156Y mutant,< 0.4 nM
same,impact of food on absorption,"[5]; 225 mg, food consumed within 30 minutes after taking ensartinib",minimal impact
same,increase in mean day 22 AUC from 225 to 250 mg,"[5]; fasted, 11% increase in dose",36%
same,dose proportionality of mean day 22 Cmax and AUC,"[5]; fasted, 200-225 mg",slightly more than dose proportionally
same,dose proportionality of mean day 22 Cmax and AUC,"[5]; fasted, 225-250 mg",significantly more than dose proportionally
same,dose proportionality of mean day 22 Cmax and AUC,"[5]; human, in vivo",increased dose proportionally
same,IC50,EphA1,1 to 10 nM
same,IC50,c-MET,1 to 10 nM
same,IC50,ALK T1151 mutant,< 0.4 nM
same,IC50,ALK F1174 mutant,< 0.4 nM
same,IC50,ALK variants,< 4 nM
same,IC50,EphA2,1 to 10 nM
same,potency relative to crizotinib at inhibiting growth,[6],10 fold
same,IC50,EphB1,1 to 10 nM
same,maximum tolerated dose,"Phase I/II trial, safety; 25-250 mg once daily",not reached
same,deaths related to ensartinib,"Phase I/II trial, safety; as considered by the sponsor",no deaths
same,"Constipation, All grades","Phase I/II trial, safety; human, in vivo",11 (11%)
same,"Constipation, Grade ≥3","Phase I/II trial, safety; human, in vivo",0
same,"Decreased Appetite, All grades","Phase I/II trial, safety; human, in vivo",18 (19%)
same,"Decreased Appetite, Grade ≥3","Phase I/II trial, safety; human, in vivo",1 (1%)
same,"Diarrhea, All grades","Phase I/II trial, safety; human, in vivo",11 (11%)
same,"Diarrhea, Grade ≥3","Phase I/II trial, safety; human, in vivo",0
same,"Dry Skin, All grades","Phase I/II trial, safety; human, in vivo",14 (14%)
same,"Dry Skin, Grade ≥3","Phase I/II trial, safety; human, in vivo",1 (1%)
same,"Edema, All grades","Phase I/II trial, safety; human, in vivo",15 (15%)
same,"Edema, Grade ≥3","Phase I/II trial, safety; human, in vivo",1 (1%)
same,"Elevated aspartate aminotransferase, All grades","Phase I/II trial, safety; human, in vivo",12 (12%)
same,"Elevated aspartate aminotransferase, Grade ≥3","Phase I/II trial, safety; human, in vivo",1 (1%)
same,"Fatigue, All grades","Phase I/II trial, safety; human, in vivo",21 (22%)
same,"Fatigue, Grade ≥3","Phase I/II trial, safety; human, in vivo",2 (2%)
same,"Nausea, All grades","Phase I/II trial, safety; human, in vivo",35 (36%)
same,"Nausea, Grade ≥3","Phase I/II trial, safety; human, in vivo",1 (1%)
same,"Pruritus, All grades","Phase I/II trial, safety; human, in vivo",27 (28%)
same,"Pruritus, Grade ≥3","Phase I/II trial, safety; human, in vivo",5 (5%)
same,"Rash, All grades","Phase I/II trial, safety; human, in vivo",54 (56%)
same,"Rash, Grade ≥3","Phase I/II trial, safety; human, in vivo",12 (12%)
same,"Vomiting, All grades","Phase I/II trial, safety; human, in vivo",25 (26%)
same,"Vomiting, Grade ≥3","Phase I/II trial, safety; human, in vivo",1 (1%)
same,drug-related diarrhea,"Phase I/II trial, safety; human, in vivo",11%
same,patients permanently discontinued due to related toxicity,"Phase I/II trial, safety; human, in vivo",5.2%
same,patients requiring at least one dose reduction due to treatment-related toxicity,"Phase I/II trial, safety; human, in vivo",25%
same,patients with treatment-related Grade 3-4 AEs,"Phase I/II trial, safety; human, in vivo",23%
same,treatment-related fatigue,"Phase I/II trial, safety; human, in vivo",22%
same,treatment-related nausea,"Phase I/II trial, safety; human, in vivo",36%
same,treatment-related pruritus,"Phase I/II trial, safety; human, in vivo",28%
same,treatment-related vomiting,"Phase I/II trial, safety; human, in vivo",26%
same,recommended phase II dose (RP2D),"Phase I/II trial, safety; human, in vivo, 28 days",225 mg
same,patients who died while on study,"Phase I/II trial, safety; n=97",Five
same,inhibition of ALK fusion with C1156Y,[7],potently inhibited
same,median DOR,"ALK-positive NSCLC [8]; ALK TKI naïve patients, n=12",24.4 months
same,median PFS,ALK-positive NSCLC [8]; ALK TKI-naïve patients,26.2 months
same,disease control rate (DCR),"ALK-positive NSCLC [8]; ALK TKI-naïve patients, n=15",86.7%
same,response rate (RR),"ALK-positive NSCLC [8]; ALK TKI-naïve patients, n=15",80%
same,disease control rate (DCR),ALK-positive NSCLC [8]; [10],81.7%
same,patients with tumor regression,ALK-positive NSCLC [8]; [10],80%
same,median DOR,"ALK-positive NSCLC [8]; ALK-positive evaluable patients, n=35",12.8 months
same,median PFS,"ALK-positive NSCLC [8]; ALK-positive evaluable patients, ≥200 mg",9.2 months
same,median DOR,"ALK-positive NSCLC [8]; crizotinib and a second-generation ALK TKI, n=4",4.4 months
same,intracranial DCR,ALK-positive NSCLC [8]; [11],92.9%
same,intracranial response rate,ALK-positive NSCLC [8]; [11],64% and 64.3%
same,patients with intracranial tumor regression,ALK-positive NSCLC [8]; [11],78.6%
same,disease control rate (DCR),ALK-positive NSCLC [8]; [12],50.0%
same,response rate (RR),ALK-positive NSCLC [8]; [12],25%
same,median PFS,ALK-positive NSCLC [8]; prior crizotinib only,9.0 months
same,median DOR,"ALK-positive NSCLC [8]; prior crizotinib only, n=19",7.4 months
same,disease control rate (DCR),"ALK-positive NSCLC [8]; prior crizotinib only, n=29",96.6%
same,response rate (RR),"ALK-positive NSCLC [8]; prior crizotinib only, n=29",69%
same,median intracranial DOR,"ALK-positive NSCLC [8]; responding patients with CNS target lesions at baseline, n=9, ≥200 mg",5.7 months
same,IC50,TRKC,< 1 nM
same,IC50,ALK L1196M mutant,< 0.4 nM
same,inhibition of ALK fusion with L1196M,[9],potently inhibited
same,IC50,ALK S1206R mutant,< 0.4 nM
